For assay [1], the target named is Gppcp-bound recombinant K-Ras4B G12C mutant protein (amino acids 1-169, C51S/C80L/C118S) (Homo sapiens, UniProt P01116, C118S/C51S/C80L/G12C). The assay can be described thus: KRASG12C binding assay (LC-MS compound binding rate). The note with it: test compound final concentration 0.5 μM, 25° C., 1 hour. The gist of the method:
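Gppcp-bound K-Ras4B G12C (aa 1-169, C51S/C80L/C118S) at 50 nM in 1×TBS, 0.1 mM TCEP, 0.25 mM MgCl2, 50 μM Gppcp was incubated 1 hour at 25° C with compound at 0.5 μM final. Intact-protein LC-MS gave binding rate as single-adduct signal over total KRAS signal, graded A (≥80%) to E (<20%).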

The subject of assay [2] is MIA PaCa-2 cells. Description: Growth inhibition activity on KRAS-G12C mutant cell line (MIA PaCa-2). Particulars: Homo sapiens, 72 h; MIA PaCa-2, 3-day culture, CellTiter-Glo 3D. Type of assay: cell-based. Summed up: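 KRAS-G12C human pancreatic MIA PaCa-2 cells in RPMI1640 + 10% FBS, seeded in U-bottom plates and grown 1 day, then exposed to compound (0.2% DMSO final) for 3 days at 37 °C, 5% CO2. Viability by CellTiter-Glo 3D luminescence; IC50 from inhibition relative to untreated wells.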

Our source for the binding rate and IC50 values is patent US12673041B2, “4-aminobut-2-enamide derivatives and salt thereof” (TAIHO PHARMACEUTICAL CO., LTD., priority 2019, dated 2026).

In general, IC50 refers to the concentration at which inhibition is half-maximal.

Consider `C=CC(=O)N1CCN(c2ncnc3c(F)c(-c4c(O)cccc4F)c(Cl)cc23)CC1` [ARS-1620, reference compound], for which the binding rate entry in assay [1] was “E (a binding rate of less than 20% is rated “E”)”.

`CO[C@H]1CC[C@H](NC/C=C/C(=O)Nc2ccc(C(=O)c3ccc4c(-c5cc6ncn(C)c6cc5C)cccn34)cc2C#N)CC1` [Example 4, (E)-N-(2-cyano-4-(8-(1,6-dimethyl-1H-benzo[d]imidazol-5-yl)indolizine-3-carbonyl)phenyl)-4-(((1r,4r)-4-methoxycyclohexyl)amino)but-2-enamide]: the IC50 in assay [2] was 140 nM. Moreover, the binding rate result in assay [1] is given as “A (A binding rate of 80% or more is rated “A”)”.

For `CCc1nc2cc(-c3cccc(NC(=O)c4ccc(NC(=O)/C=C/CN[C@H]5CC[C@H](OC)CC5)c(C#N)c4)c3)c(C(F)(F)F)cc2n1C` [Example 1, 3-cyano-N-(3-(2-ethyl-1-methyl-6-(trifluoromethyl)-1H-benzo[d]imidazol-5-yl)phenyl)-4-((E)-4-(((1r, 4r)-4-methoxycyclohexyl)amino)but-2-enamido)benzamide], in assay [1], the binding rate entry was “A (A binding rate of 80% or more is rated “A”)”.
